“Also recorded” adds a separate entry of the source. Marks after values point to notes of the source that are not given here.
Experiments:
pregnant rats [1] = assay: L-NAME infusion to pregnant rats: delivery and pups delivered; type: in vivo
Excerpt: The data in Table 2 below show the delivery and the pups delivered of L-NAME infusion to pregnant rats.

[2] = tested on: spontaneously contracting uterine strips from rat; assay: Relaxation of spontaneously contracting uterine strips in muscle baths; type: cell-based
Description: The tissues were obtained on days 17-22 (d17, d18, d19 and d22) of gestation, on day 22 (d22 del) during spontaeous delivery (1-3 pups delivered), or on 1 (d1pp) and 2 (d2pp) days postpartum. […] Data are analyzed by repeated measures ANOVA on seven groups. […] Each data point represent mean±S.E.M. The total number of strips studied at each time period was 8-16 from 4-6 animals per group.
Each upstroke from baseline represents a contraction.
In the experiments whose results are shown by the graph of FIG. 2, the tissues were obtained on days 17-22 (d17, d18, d19 and d22) of gestation, on day 22 (d22 del) during spontaneous delivery (1-3 pups delivered), or on 1 (d1pp) and 2 (d2pp) days postpartum. […] Each data point represent mean±SEM. The total number of strips studied at each time period was 8-16 from 4-6 animals per group.

pregnant rats [3] = assay: L-NAME infusion in pregnant rats: blood pressure; type: in vivo, rat
Excerpt: The data in Table 1 below show the effects of L-NAME infusion on blood pressure (mm Hg) in pregnant rats.

[4] = tested on: L-NAME-induced "preeclampsia" animals; assay: L-NAME-induced "preeclampsia": blood pressure and fetal weights; type: in vivo; conditions: for Effect on L-NAME-induced hypertension (blood pressure): 50 mg L-NAME (FIG. 5); for Effect on fetal weights (pup weights): same L-NAME-treated "preeclamptic" animals (FIG. 6)

Q: What does the source list for `COC(=O)[C@@H](N)CCCNC(=N)N[N+](=O)[O-]` [L-NAME, N^G-nitro-L-arginine methyl ester]?
A: Day of Delivery (pregnant rats [1]; L-NAME 25 mg/day): 22.4 ± 0.2; Weight of pups (pregnant rats [1]; L-NAME 25 mg/day): 5.05 ± 0.08^b; # of dead pups (pregnant rats [1]; L-NAME 25 mg/day, 9 animals): 5; Day of Delivery (pregnant rats [1]; L-NAME 50 mg/day): 22.7 ± 0.2; Weight of pups (pregnant rats [1]; L-NAME 50 mg/day): 4.56 ± 0.10^c; # of dead pups (pregnant rats [1]; L-NAME 50 mg/day, 10 animals): 10; Effect on the relaxation produced by L-arginine ([2]; 3 mM (FIG. 1B)): reversed; Blood Pressure (pregnant rats [3]; L-NAME 25 mg/day infusion, gestation Day 15): 119 ± 2^a mm Hg; Blood Pressure (pregnant rats [3]; L-NAME 25 mg/day infusion, gestation Day 18): 144 ± 4^b mm Hg; Blood Pressure (pregnant rats [3]; L-NAME 25 mg/day infusion, gestation Day 22): 146 ± 2^b mm Hg; Blood Pressure (pregnant rats [3]; L-NAME 50 mg/day infusion, gestation Day 15): 123 ± 3^a mm Hg; Blood Pressure (pregnant rats [3]; L-NAME 50 mg/day infusion, gestation Day 18): 166 ± 2^c mm Hg; Blood Pressure (pregnant rats [3]; L-NAME 50 mg/day infusion, gestation Day 22): 168 ± 3^c mm Hg

Q: Which “Duration of complete inhibition of spontaneous uterine contractions” value ([2]; 0.1 mM to 10 mM, strips from days 17-22 of gestation, delivery, postpartum (FIG. 2)) does the source give for `N=C(N)NCCC[C@H](N)C(=O)O` [L-arginine] here?
A: Its value is “dose-dependent”.

Q: What about the “Relaxation of spontaneously contracting tissues” value ([2]; 1 mM (FIG. 1E), repeatable in the same strip) of the same compound?
A: The value was “produced relaxation”.

Q: What about the “Relaxation of spontaneously contracting uterine strips” value ([2]; 1-3 mM, rat day 18 of gestation (FIG. 1 A, B, E)) of the same compound?
A: The value was “substantial relaxations”.

Q: And the “Relaxation effects during spontaneous delivery at term and postpartum, compared to all other times” value ([2]; from concentrations of 1 mM (FIG. 2))?
A: The value was “significantly (P<0.01) decreased”.

Q: And the “Effect on L-NAME-induced hypertension (blood pressure)” value [4]?
A: Its value is “partially reduced blood pressure”.

Q: What about the “Effect on fetal weights (pup weights)” value [4] of the same compound?
A: The value was “slightly but statistically significant, elevated fetal weights”.

Q: With `CCC(=O)[C@@]1(C)CC[C@H]2[C@@H]3CCC4=CC(=O)CCC4=C3CC[C@@]21C` [R 5020, promegestone] as the compound, how does the “Effect on L-NAME-induced hypertension (blood pressure)” value [4] read?
A: The value was “partinally reduced”.

Q: What about the “Effect on fetal weights (pup weights)” value [4] of the same compound?
A: The value was “slightly but statistically significant, elevated fetal weights”.

Q: Which “Effect on the relaxation effect of L-arginine (1 mM)” value ([2]; 0.1 mM, added before the application of L-arginine) does the source give for `CN(C)c1ccc2nc3ccc(=[N+](C)C)cc-3sc2c1` [methylene blue] here?
A: Its value is “abolished”.

Q: What about the “Effect on the relaxation produced by L-arginine” value ([2]; (FIG. 1E)) of the same compound?
A: The value was “reversed”.

Q: `[N]=O` [nitric oxide] was tested. Which “Relaxation of spontaneously contracting uterine strips” value ([2]; 0.1 mM, rat day 18 of gestation (FIG. 1D)) did it give?
A: The value was “substantial relaxations; also recorded: relaxation”.
